Laboratory results taken from PubChem BioAssay (NCI).
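How tested: cells in 96-well plates exposed to compound for 48 hours at five concentrations. GI50 = concentration required for 50% inhibition of growth. At the TGI there is no net growth.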

Key:
Experiment in all cases: NCI tumour cell line growth inhibition, 48 h
A498 renal = system: A498 renal
COLO 205 colon = system: COLO 205 colon
UO-31 renal = system: UO-31 renal
RXF 393 renal = system: RXF 393 renal
HOP-62 NSCLC = system: HOP-62 NSCLC
HS 578T breast = system: HS 578T breast
NCI-H226 lung = system: NCI-H226 lung
DU-145 prostate = system: DU-145 prostate
PC-3 prostate = system: PC-3 prostate
SN12C renal = system: SN12C renal
SNB-19 CNS = system: SNB-19 CNS
SK-OV-3 ovarian = system: SK-OV-3 ovarian
UACC-257 melanoma = system: UACC-257 melanoma
T-47D breast = system: T-47D breast
BT-549 breast = system: BT-549 breast
SK-MEL-2 melanoma = system: SK-MEL-2 melanoma
CAKI-1 renal = system: CAKI-1 renal
UACC-62 melanoma = system: UACC-62 melanoma
OVCAR-5 ovarian = system: OVCAR-5 ovarian
HCC-2998 colon = system: HCC-2998 colon
SF-295 CNS = system: SF-295 CNS
SNB-75 CNS = system: SNB-75 CNS
HL-60(TB) leukemia = system: HL-60(TB) leukemia
LOX IMVI melanoma = system: LOX IMVI melanoma
NCI-H23 lung = system: NCI-H23 lung
MDA-MB-231 breast = system: MDA-MB-231 breast
786-0 renal = system: 786-0 renal

CCCCCCCCCCCCCCCCSC(=NCC)NCC
GI50 (A498 renal): 6.66 µM | TGI (A498 renal): 34.3 µM | GI50 (COLO 205 colon): 1.81 µM | TGI (COLO 205 colon): 3.47 µM | GI50 (UO-31 renal): 1.62 µM | TGI (UO-31 renal): 4.09 µM | GI50 (RXF 393 renal): 1.63 µM | TGI (RXF 393 renal): 3.47 µM | GI50 (HOP-62 NSCLC): 1.77 µM | TGI (HOP-62 NSCLC): 3.18 µM | GI50 (HS 578T breast): 2.8 µM | TGI (HS 578T breast): 8.84 µM | GI50 (NCI-H226 lung): 2.98 µM | TGI (NCI-H226 lung): 14.6 µM | GI50 (DU-145 prostate): 1.62 µM | TGI (DU-145 prostate): 2.98 µM | GI50 (PC-3 prostate): 1.37 µM | TGI (PC-3 prostate): 2.74 µM | GI50 (SN12C renal): 1.56 µM | TGI (SN12C renal): 2.98 µM | GI50 (SNB-19 CNS): 3.12 µM | TGI (SNB-19 CNS): 15.8 µM | GI50 (SK-OV-3 ovarian): 3.36 µM | TGI (SK-OV-3 ovarian): 11.6 µM | GI50 (UACC-257 melanoma): 1.87 µM | TGI (UACC-257 melanoma): 3.75 µM | GI50 (T-47D breast): 1.48 µM | TGI (T-47D breast): 3.13 µM | GI50 (BT-549 breast): 6.16 µM | TGI (BT-549 breast): 46.9 µM | GI50 (SK-MEL-2 melanoma): 4.05 µM | TGI (SK-MEL-2 melanoma): 28.4 µM | GI50 (CAKI-1 renal): 1.39 µM | TGI (CAKI-1 renal): 2.78 µM | GI50 (UACC-62 melanoma): 1.67 µM | TGI (UACC-62 melanoma): 3.1 µM | GI50 (OVCAR-5 ovarian): 3.08 µM | TGI (OVCAR-5 ovarian): 12.5 µM | GI50 (HCC-2998 colon): 1.85 µM | TGI (HCC-2998 colon): 3.28 µM | GI50 (SF-295 CNS): 1.47 µM | TGI (SF-295 CNS): 2.88 µM | GI50 (SNB-75 CNS): 2.01 µM | TGI (SNB-75 CNS): 12.9 µM | GI50 (HL-60(TB) leukemia): 1.45 µM | TGI (HL-60(TB) leukemia): 3.12 µM | GI50 (LOX IMVI melanoma): 1.63 µM | TGI (LOX IMVI melanoma): 3 µM | GI50 (NCI-H23 lung): 2.05 µM | TGI (NCI-H23 lung): 4.99 µM | GI50 (MDA-MB-231 breast): 1.31 µM | TGI (MDA-MB-231 breast): 2.69 µM | GI50 (786-0 renal): 3.49 µM | TGI (786-0 renal): 20.8 µM
